From US20110020849A1, “BIOMARKERS FOR DIAGNOSTIC AND THERAPEUTIC METHODS” (Wayne State University, priority 2007, published 2011)

Key:
[1] = system: rabbit RBCs; assay: Deformation-induced ATP release from rabbit RBCs pumped through microbore tubing (luciferin/luciferase chemiluminescence); assay type: cell-based
Method: (§1) Preparation of RBCs. Rabbits (New Zealand whites, males, 2.0-2.5 kg) were anesthetized with ketamine ([…], i.m.) and xylazine (1 mg/kg, i.m.) followed by pentobarbital sodium (15 mg/kg i.v.). A cannula was placed in the trachea and the animals were ventilated with room air. A catheter was placed into a carotid artery for administration of heparin and for phlebotomy. After heparin (500 units, i.v.), the animals were exsanguinated. Human blood was obtained by venipuncture without the use of a tourniquet (antecubital fossa) and collected into a heparinized syringe. Blood was centrifuged at 500×g at 4° C. for 10 min. The plasma and buffy coat were discarded. The RBCs were resuspended and washed three times in a physiological salt solution [PSS, containing in mM: 4.7 KCl, 2.0 CaCl2, 140.5 NaCl […], 21.0 tris(hydroxymethyl)aminomethane, 11.1 dextrose with 5% bovine serum albumin (final pH 7.4)]. Cells were prepared on the day of use and experiments were finished within 8 hours of removal from the animal or human subjects. All procedures were approved by the Animal Investigation Committee or the Human Investigation Committee at Wayne State University.
(§2) Measurement of ATP. Human C-peptide (American Peptide Co., Sunnyvale, Calif.), 0.25 mg (MW=3020 g/mol), was dissolved in […] of purified water (18.2 megaohm) to yield a concentration of 83 μM. […] The resulting chemluminescence reaction flowed through a final potion of fused-silica microbore tubing that was placed over a photomultiplier tube, where the emission was detected. The resultant current was measured as a potential by a data acquisition board operated by a program written with the LabView software package (National Instruments, Austin, Tex.).
Introduction. […] Upon deformation in the tubing, the RBCs release ATP that is measured using a well-established chemiluminescence assay for ATP. The concentrations of RBC-derived ATP are measured in the presence and absence of synthetic C-peptide.
C-Peptide-Induced Release of ATP. RBCs obtained from rabbits are pumped through microbore tubing having an inside diameter of 50 μm and the resultant ATP released by the cells upon deformation in the tubing is measured. […] Another aliquot from the same RBC sample is incubated in 1 nM C-peptide and the resultant ATP release measured every 2 h for a period up to 6 h. […] As shown, the ATP release (determined by a chemiluminescence assay) from those cells incubated in the c-peptide increased approximately 2.9 times over a period of […]. […] If cell lysis were occurring, the glybenclamide would have no affect on the measured ATP as it would be present in extracellular form whether or not glybenclamide was introduced to the RBCs. […]

[2] = system: diabetic human RBCs; assay: ATP release from RBCs of patients with type II diabetes; assay type: cell-based; settings: n=7; for ATP release: diabetic human RBCs, ±SEM, FIG. 2
Method: as §1
as §2, with “μM. Next, an appropriate volume of this C-peptide solution was added to 10 mL of a 7% solution of RBCs to create a solution containing the C-peptide at concentrations in the 1-5 nM range.” for “μM.”, “Tex.). […]” for “Tex.).”

[3] = system: RBCs; assay: Loss of ATP-release bioactivity of C-peptide preparation in water (repeats of Experiments 1 and 2); assay type: cell-based
[4] = system: RBCs; assay: Cell lysis control: RBC solutions measured under non-flow conditions with a luminometer; assay type: cell-based; settings: 200 μL RBC solution and 200 μL luciferin/luciferase solution
Method: To ensure that the resulting increase in ATP release was due to C-peptide interacting with the RBCs and not cell lyses, the RBC solutions were measured under non-flow conditions using a luminometer with 200 μL of the RBC solution and 200 μL of the luciferin/luciferase solution. […] To ensure that lysis was not occurring in the tubing, a solution of 0.01 M glybenclamide was prepared by adding 49 mg of glybenclamide (Sigma) to 2 mL of a 0.1 M solution of sodium hydroxide. To this, 7.94 mL of a dextrose solution (1 g dextrose in 20 mL of purified water) was added. The mixture was heated carefully to 52° C. until all of the glybenclamide was dissolved. Once the solute was completely dissolved, 1 mL of this solution was added to 9 mL of PSS, resulting in a solution with a concentration 0.001 M. From this diluted solution, 2.5 mL were added to 2.5 mL of 7% hematocrit RBC solution, resulting in a 3.5% hematocrit solution of RBCs. This solution was allowed to incubate for 15 minutes. As a comparison, 2.5 mL of wash buffer without glybenclamide was added to 2.5 mL of 7% hematocrit RBCs. After 15 minutes, the RBC solutions were assayed.

[5] = Electrospray ionization mass spectrometry of C-peptide and metal adducts in aqueous solution; settings: ESI-MS
Method: Mass Spectrometric Analysis of Metal-Peptide Binding.
Specifically, the mass spectrum shown in FIG. 3a is that of peptide prepared in water and analyzed within 0.5 h of preparation. In 3a, the [M+3H]^3+ peak is present as are other forms of the peptide with sodium atoms, potassium atoms, or a combination thereof.

Row | Compound | ability to induce ATP release from deformed RBCs ([1]; C-peptide solution kept at 4° C. for >30 days) | increase in ATP release ([1]; rabbit RBCs, 1 nM C-peptide, over a period of 8 h, normalized values, FIG. 1) | increase in ATP release versus control (buffer without C-peptide) ([1]; rabbit RBCs, 1 nM C-peptide, over the 6 h period) | restoration of ATP release levels ([2]; RBCs of patients with type II diabetes, compared with healthy non-diabetic controls) | ATP release ([2]; after 6 hours of incubation with freshly prepared C-peptide preparation) | ATP release ([2]; at 0 hours, freshly prepared C-peptide preparation) | time to loss of bioactivity after preparation in water [3] | luminescence signal under non-flow conditions (cell lysis check) [4] | time in solution without degradation or cleavage [5] | effect on the C-peptide-induced increase in ATP release ([1]; RBCs incubated in glybenclamide)
1 | C-peptide | no longer has the ability to induce ATP release from deformed RBCs | approximately 2.9 times | nearly three times that of the RBCs incubated with a control | restore these release levels to a value that is statistically equivalent to that of healthy, non-diabetic control patients | 256.1 ± 38.7 nM | 63.6 ± 12.6 nM | 24 to 36 h | No detectable signals were obtained | > 30 days | –
2 | COc1ccc(Cl)cc1C(=O)NCCc1ccc(S(=O)(=O)NC(=O)NC2CCCCC2)cc1 [glybenclamide] | – | – | – | – | – | – | – | – | – | can be inhibited
